Values of other authors as cited in US20170049816A1, “Methods of Benchmarking Wellness with a Stable Reactive Oxygen Species Solution” (Reoxcyn Discoveries Group, Inc., priority 2013, published 2017).

Conditions: pH-neutral aqueous solution (pH around 7.0) at room temperature

O=[O+][O-] [dissolved ozone (O3), ozone]
half-life: about 20 min
